Test results: patent US7125662B2, “Method of identifying putative antibiotic resistance genes” (priority 2000, dated 2006)

tested on: not given; experiment: not given; settings: Table 1, β-lactams; unit assumed; cited from earlier work

**Q.** With CO/N=C(\C(=O)N[C@@H]1C(=O)N2C(C(=O)O)=C(COC(N)=O)CS[C@H]12)c1ccco1 [Cefuroxime] as the molecule, how does the Clin. = the MIC for clinical resistance read?
**A.** 32 µg/mL

**Q.** Which Clin. = the MIC for clinical resistance does the source give for CO[C@@]1(NC(=O)C(C(=O)O)c2ccsc2)C(=O)N2[C@@H](C(=O)O)C(C)(C)S[C@@H]21 (stereo partly drawn) [Temocillin] here?
**A.** 32 µg/mL

**Q.** For CC(=O)OCC1=C(C(=O)O)N2C(=O)[C@@H](NC(=O)Cc3cccs3)[C@H]2SC1 [Cephalothin], which Clin. = the MIC for clinical resistance is on record?
**A.** 32 µg/mL

tested on: host expressing Citrobacter freundii ampC gene CMY2; experiment: MIC conferred by ampC gene CMY2 cloned into common vector; format: cell-based; settings: not given
Excerpt: (§1) The plasmid-borne ampC genes shown in Table 1 (below) have been cloned into a common vector to ensure that all genes are expressed at the same level. […] That is completely expected because those genes were isolated from clinical samples and identified on the basis of conferring resistance to clinical drugs. ampC genes from two strains of Citrobacter freundii that were isolated in the 1920's, in the pre-antibiotic era, were also cloned into the same vector.

**Q.** Which “Minimum Inhibitory Concentration (MIC)” value does the source give for CO/N=C(\C(=O)N[C@@H]1C(=O)N2C(C(=O)O)=C(COC(N)=O)CS[C@H]12)c1ccco1 [Cefuroxime] here?
**A.** 256

**Q.** With CO[C@@]1(NC(=O)C(C(=O)O)c2ccsc2)C(=O)N2[C@@H](C(=O)O)C(C)(C)S[C@@H]21 (stereo partly drawn) [Temocillin] as the molecule, how does the “Minimum Inhibitory Concentration (MIC)” value read?
**A.** 32

**Q.** Which “Minimum Inhibitory Concentration (MIC)” value does the source give for CC(=O)OCC1=C(C(=O)O)N2C(=O)[C@@H](NC(=O)Cc3cccs3)[C@H]2SC1 [Cephalothin] here?
**A.** 1024

tested on: host expressing Citrobacter freundii ampC gene Cfre8454; experiment: MIC conferred by ampC gene Cfre8454 cloned into common vector; format: cell-based; settings: Cfre 8454, gene from organism isolated in the 1920's
Excerpt: as §1

**Q.** With CO/N=C(\C(=O)N[C@@H]1C(=O)N2C(C(=O)O)=C(COC(N)=O)CS[C@H]12)c1ccco1 [Cefuroxime] as the molecule, how does the “Minimum Inhibitory Concentration (MIC)” value read?
**A.** 512

**Q.** Which “Minimum Inhibitory Concentration (MIC)” value does the source give for CO[C@@]1(NC(=O)C(C(=O)O)c2ccsc2)C(=O)N2[C@@H](C(=O)O)C(C)(C)S[C@@H]21 (stereo partly drawn) [Temocillin] here?
**A.** 32

**Q.** Which “Minimum Inhibitory Concentration (MIC)” value does the source give for CC(=O)OCC1=C(C(=O)O)N2C(=O)[C@@H](NC(=O)Cc3cccs3)[C@H]2SC1 [Cephalothin] here?
**A.** 2048

tested on: evolved E. coli ampC gene; experiment: not given; settings: two or three laboratory-induced mutations; cited from earlier work

**Q.** Which “resistance conferred after further evolution” value does the source give for CO[C@@]1(NC(=O)C(C(=O)O)c2ccsc2)C(=O)N2[C@@H](C(=O)O)C(C)(C)S[C@@H]21 (stereo partly drawn) [Temocillin] here?
**A.** confer resistance

tested on: host expressing Citrobacter freundii ampC gene LAT3; experiment: MIC conferred by ampC gene LAT3 cloned into common vector; format: cell-based; settings: not given
Excerpt: as §1

**Q.** With CO/N=C(\C(=O)N[C@@H]1C(=O)N2C(C(=O)O)=C(COC(N)=O)CS[C@H]12)c1ccco1 [Cefuroxime] as the molecule, how does the “Minimum Inhibitory Concentration (MIC)” value read?
**A.** 1024

**Q.** Which “Minimum Inhibitory Concentration (MIC)” value does the source give for CO[C@@]1(NC(=O)C(C(=O)O)c2ccsc2)C(=O)N2[C@@H](C(=O)O)C(C)(C)S[C@@H]21 (stereo partly drawn) [Temocillin] here?
**A.** 64

**Q.** With CC(=O)OCC1=C(C(=O)O)N2C(=O)[C@@H](NC(=O)Cc3cccs3)[C@H]2SC1 [Cephalothin] as the molecule, how does the “Minimum Inhibitory Concentration (MIC)” value read?
**A.** 2048

tested on: host expressing Citrobacter freundii ampC gene CMY3b; experiment: MIC conferred by ampC gene CMY3b cloned into common vector; format: cell-based; settings: not given
Excerpt: as §1

**Q.** For CO/N=C(\C(=O)N[C@@H]1C(=O)N2C(C(=O)O)=C(COC(N)=O)CS[C@H]12)c1ccco1 [Cefuroxime], which “Minimum Inhibitory Concentration (MIC)” value is on record?
**A.** 1024

**Q.** For CO[C@@]1(NC(=O)C(C(=O)O)c2ccsc2)C(=O)N2[C@@H](C(=O)O)C(C)(C)S[C@@H]21 (stereo partly drawn) [Temocillin], which “Minimum Inhibitory Concentration (MIC)” value is on record?
**A.** 32

**Q.** With CC(=O)OCC1=C(C(=O)O)N2C(=O)[C@@H](NC(=O)Cc3cccs3)[C@H]2SC1 [Cephalothin] as the molecule, how does the “Minimum Inhibitory Concentration (MIC)” value read?
**A.** 2048

tested on: host expressing Citrobacter freundii ampC gene LAT1; experiment: MIC conferred by ampC gene LAT1 cloned into common vector; format: cell-based; settings: not given
Excerpt: as §1

**Q.** With CO/N=C(\C(=O)N[C@@H]1C(=O)N2C(C(=O)O)=C(COC(N)=O)CS[C@H]12)c1ccco1 [Cefuroxime] as the molecule, how does the “Minimum Inhibitory Concentration (MIC)” value read?
**A.** 2048

**Q.** For CO[C@@]1(NC(=O)C(C(=O)O)c2ccsc2)C(=O)N2[C@@H](C(=O)O)C(C)(C)S[C@@H]21 (stereo partly drawn) [Temocillin], which “Minimum Inhibitory Concentration (MIC)” value is on record?
**A.** 64

**Q.** Which “Minimum Inhibitory Concentration (MIC)” value does the source give for CC(=O)OCC1=C(C(=O)O)N2C(=O)[C@@H](NC(=O)Cc3cccs3)[C@H]2SC1 [Cephalothin] here?
**A.** 4096

tested on: E. coli K12 ampC; experiment: not given; settings: gene cloned into a plasmid, effective promoter; cited from earlier work

**Q.** For CO/N=C(\C(=O)N[C@@H]1C(=O)N2C(C(=O)O)=C(COC(N)=O)CS[C@H]12)c1ccco1 [Cefuroxime], which clinical resistance conferred is on record?
**A.** confers clinical resistance

**Q.** Which clinical resistance conferred does the source give for CC(=O)OCC1=C(C(=O)O)N2C(=O)[C@@H](NC(=O)Cc3cccs3)[C@H]2SC1 [Cephalothin] here?
**A.** confers clinical resistance

tested on: host expressing Citrobacter freundii ampC gene Cfre6879; experiment: MIC conferred by ampC gene Cfre6879 cloned into common vector; format: cell-based; settings: Cfre 6879, gene from organism isolated in the 1920's
Excerpt: as §1

**Q.** Which “Minimum Inhibitory Concentration (MIC)” value does the source give for CO/N=C(\C(=O)N[C@@H]1C(=O)N2C(C(=O)O)=C(COC(N)=O)CS[C@H]12)c1ccco1 [Cefuroxime] here?
**A.** 512

**Q.** With CO[C@@]1(NC(=O)C(C(=O)O)c2ccsc2)C(=O)N2[C@@H](C(=O)O)C(C)(C)S[C@@H]21 (stereo partly drawn) [Temocillin] as the molecule, how does the “Minimum Inhibitory Concentration (MIC)” value read?
**A.** 32

**Q.** With CC(=O)OCC1=C(C(=O)O)N2C(=O)[C@@H](NC(=O)Cc3cccs3)[C@H]2SC1 [Cephalothin] as the molecule, how does the “Minimum Inhibitory Concentration (MIC)” value read?
**A.** 1024

tested on: host expressing Citrobacter freundii ampC gene LAT4; experiment: MIC conferred by ampC gene LAT4 cloned into common vector; format: cell-based; settings: not given
Excerpt: as §1

**Q.** Which “Minimum Inhibitory Concentration (MIC)” value does the source give for CO/N=C(\C(=O)N[C@@H]1C(=O)N2C(C(=O)O)=C(COC(N)=O)CS[C@H]12)c1ccco1 [Cefuroxime] here?
**A.** 2048

**Q.** Which “Minimum Inhibitory Concentration (MIC)” value does the source give for CO[C@@]1(NC(=O)C(C(=O)O)c2ccsc2)C(=O)N2[C@@H](C(=O)O)C(C)(C)S[C@@H]21 (stereo partly drawn) [Temocillin] here?
**A.** 64

**Q.** For CC(=O)OCC1=C(C(=O)O)N2C(=O)[C@@H](NC(=O)Cc3cccs3)[C@H]2SC1 [Cephalothin], which “Minimum Inhibitory Concentration (MIC)” value is on record?
**A.** 4096

tested on: plasmid-borne ampC genes CMY-2, CMY-3b, LAT-1, LAT-2, LAT-3, and LAT-4; experiment: Clinical resistance conferred by plasmid-borne ampC genes as a group; format: cell-based, Citrobacter freundii; settings: all of CMY-2, CMY-3b, LAT-1, LAT-2, LAT-3, LAT-4
Excerpt: (§2) The plasmid-borne ampC genes shown in Table 1 (below) have been cloned into a common vector to ensure that all genes are expressed at the same level.

**Q.** Which clinical resistance conferred does the source give for CO/N=C(\C(=O)N[C@@H]1C(=O)N2C(C(=O)O)=C(COC(N)=O)CS[C@H]12)c1ccco1 [Cefuroxime] here?
**A.** confer clinical resistance

**Q.** For CO[C@@]1(NC(=O)C(C(=O)O)c2ccsc2)C(=O)N2[C@@H](C(=O)O)C(C)(C)S[C@@H]21 (stereo partly drawn) [Temocillin], which clinical resistance conferred is on record?
**A.** confer clinical resistance

**Q.** With CC(=O)OCC1=C(C(=O)O)N2C(=O)[C@@H](NC(=O)Cc3cccs3)[C@H]2SC1 [Cephalothin] as the molecule, how does the clinical resistance conferred read?
**A.** confer clinical resistance

tested on: No Plasmid host; experiment: MIC, host with no plasmid (Table 1); format: cell-based; settings: not given
Excerpt: as §2

**Q.** Which “Minimum Inhibitory Concentration (MIC)” value does the source give for CO/N=C(\C(=O)N[C@@H]1C(=O)N2C(C(=O)O)=C(COC(N)=O)CS[C@H]12)c1ccco1 [Cefuroxime] here?
**A.** 8

**Q.** For CO[C@@]1(NC(=O)C(C(=O)O)c2ccsc2)C(=O)N2[C@@H](C(=O)O)C(C)(C)S[C@@H]21 (stereo partly drawn) [Temocillin], which “Minimum Inhibitory Concentration (MIC)” value is on record?
**A.** 4

**Q.** With CC(=O)OCC1=C(C(=O)O)N2C(=O)[C@@H](NC(=O)Cc3cccs3)[C@H]2SC1 [Cephalothin] as the molecule, how does the “Minimum Inhibitory Concentration (MIC)” value read?
**A.** 4

tested on: host expressing Citrobacter freundii ampC gene LAT2; experiment: MIC conferred by ampC gene LAT2 cloned into common vector; format: cell-based; settings: not given
Excerpt: as §1

**Q.** With CO/N=C(\C(=O)N[C@@H]1C(=O)N2C(C(=O)O)=C(COC(N)=O)CS[C@H]12)c1ccco1 [Cefuroxime] as the molecule, how does the “Minimum Inhibitory Concentration (MIC)” value read?
**A.** 256

**Q.** Which “Minimum Inhibitory Concentration (MIC)” value does the source give for CO[C@@]1(NC(=O)C(C(=O)O)c2ccsc2)C(=O)N2[C@@H](C(=O)O)C(C)(C)S[C@@H]21 (stereo partly drawn) [Temocillin] here?
**A.** 32

**Q.** Which “Minimum Inhibitory Concentration (MIC)” value does the source give for CC(=O)OCC1=C(C(=O)O)N2C(=O)[C@@H](NC(=O)Cc3cccs3)[C@H]2SC1 [Cephalothin] here?
**A.** 4096
